Results as given in ChEMBL document CHEMBL1201862, “PubChem BioAssay data set” (2004).
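Five compound concentrations were applied to cells in 96-well plates for 48 hours; endpoints were derived by simple linear interpolation of the resulting dose-response curve. The concentration for 50% growth inhibition is given as GI50.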 Activity calls are given as the source filed them. Rule as the data show it: active = GI50 up to about 1.1 µM and inactive = higher.

How the values were obtained:
Experiment in all cases: NCI anticancer screen, dose series, 48 h
[1] = system: CCRF-CEM
[2] = system: HCT-116
[3] = system: HCT-15
[4] = system: HOP-62
[5] = system: HT-29
[6] = system: Hs-578T
[7] = system: K562
[8] = system: LOX IMVI
[9] = system: M14
[10] = system: MDA-MB-435
[11] = system: MDA-N
[12] = system: NCI/ADR-RES
[13] = system: OVCAR-3
[14] = system: OVCAR-8
[15] = system: SK-MEL-2
[16] = system: SN12C
[17] = system: SW-620
[18] = system: UACC-257
[19] = system: A498

SMILES | GI50 [1] | GI50 [2] | GI50 [3] [µM] | GI50 [4] | GI50 [5] | GI50 [6] | GI50 [7] | GI50 [8] | GI50 [9] | GI50 [10] | GI50 [11] | GI50 [12] | GI50 [13] | GI50 [14] | GI50 [15] | GI50 [16] | GI50 [17] | GI50 [18] | GI50 [19]
COc1cc(C2OC(N)=C(C#N)C3=C2C(C)CCC3)cc(OC)c1OC (configuration not stated) | > 100 µM (inactive) | > 100 µM (inactive) | > 100 | 12.7 µM (inactive) | > 100 µM (inactive) | 55.1 µM (inactive) | > 100 µM (inactive) | > 100 µM (inactive) | > 100 µM (inactive) | > 100 µM (inactive) | > 100 µM (inactive) | > 100 µM (inactive) | > 100 µM (inactive) | 63 µM (inactive) | 71.8 µM (inactive) | > 100 µM (inactive) | > 100 µM (inactive) | > 100 µM (inactive) | 
COC(=O)CSC(=S)Nc1nnc(NC(=S)SCOC(C)=O)n1C(=S)SCC(=O)OC | > 100 µM (inactive) | > 100 µM (inactive) | > 100 | 6.97 µM (inactive) | > 100 µM (inactive) | > 100 µM (inactive) | > 100 µM (inactive) | > 100 µM (inactive) | > 100 µM (inactive) | > 100 µM (inactive) | > 100 µM (inactive) | > 100 µM (inactive) | > 100 µM (inactive) |  |  | > 100 µM (inactive) | > 100 µM (inactive) | > 100 µM (inactive) | > 100 µM (inactive)
COC(=O)/C=C1/SC(/C(=C(/[O-])OC)[n+]2ccc3ccccc3c2)=NC1=O | > 100 µM (inactive) | > 100 µM (inactive) |  | > 100 µM (inactive) | > 100 µM (inactive) | 25.4 µM (inactive) | > 100 µM (inactive) | > 100 µM (inactive) | > 100 µM (inactive) | > 100 µM (inactive) | > 100 µM (inactive) | > 100 µM (inactive) |  | > 100 µM (inactive) | > 100 µM (inactive) | > 100 µM (inactive) | > 100 µM (inactive) | > 100 µM (inactive) | > 100 µM (inactive)
COc1ccc(N2C(=O)C3c4[nH]c5cc(Cl)ccc5c4C4CCC(C(C)(C)C)CC4C3C2=O)cc1 (configuration not stated) | 37.9 µM (inactive) | 55.6 µM (inactive) | 87.5 | > 100 µM (inactive) | 31.7 µM (inactive) | 26.2 µM (inactive) | 33.6 µM (inactive) |  | > 100 µM (inactive) | > 100 µM (inactive) | > 100 µM (inactive) | > 100 µM (inactive) | 67.6 µM (inactive) | > 100 µM (inactive) |  | 64.9 µM (inactive) | 69.8 µM (inactive) | > 100 µM (inactive) | 
CCOC(=O)n1c2ccccc2c(=O)n1CCO | > 100 µM (inactive) | > 100 µM (inactive) | > 100 | > 100 µM (inactive) | > 100 µM (inactive) | > 100 µM (inactive) | > 100 µM (inactive) |  | > 100 µM (inactive) |  | > 100 µM (inactive) | > 100 µM (inactive) | > 100 µM (inactive) | > 100 µM (inactive) | > 100 µM (inactive) | > 100 µM (inactive) | > 100 µM (inactive) | > 100 µM (inactive) | > 100 µM (inactive)
CCc1n[nH]c(=O)[nH]1 | > 100 µM (inactive) | > 100 µM (inactive) | > 100 | > 100 µM (inactive) | > 100 µM (inactive) | > 100 µM (inactive) | > 100 µM (inactive) | > 100 µM (inactive) | > 100 µM (inactive) | > 100 µM (inactive) | > 100 µM (inactive) | > 100 µM (inactive) | > 100 µM (inactive) | > 100 µM (inactive) | > 100 µM (inactive) | > 100 µM (inactive) |  | > 100 µM (inactive) | 
